Measurements as given in PubChem BioAssay (NCI).
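These data come from cells grown in 96-well plates and exposed to compound for 48 hours at five concentrations. The concentration for 50% growth inhibition is given as GI50. TGI is the concentration that stops growth completely.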

What was measured:
Experiment in all cases: NCI tumour cell line growth inhibition, 48 h
OVCAR-3 ovarian = system: OVCAR-3 ovarian
HOP-92 NSCLC = system: HOP-92 NSCLC
NCI-H23 lung = system: NCI-H23 lung
SK-MEL-28 melanoma = system: SK-MEL-28 melanoma
U251 CNS = system: U251 CNS
NCI-H460 lung = system: NCI-H460 lung
RPMI-8226 leukemia = system: RPMI-8226 leukemia
KM12 colon = system: KM12 colon
IGROV1 ovarian = system: IGROV1 ovarian
OVCAR-5 ovarian = system: OVCAR-5 ovarian
SK-MEL-2 melanoma = system: SK-MEL-2 melanoma

Row | Compound | TGI (OVCAR-3 ovarian) [µM] | TGI (HOP-92 NSCLC) [µM] | TGI (NCI-H23 lung) [µM] | TGI (SK-MEL-28 melanoma) [µM] | TGI (U251 CNS) [µM] | TGI (NCI-H460 lung) [µM] | TGI (RPMI-8226 leukemia) [µM] | TGI (KM12 colon) [µM] | TGI (IGROV1 ovarian) [µM] | TGI (OVCAR-5 ovarian) [µM] | TGI (SK-MEL-2 melanoma) [µM] | GI50 (OVCAR-3 ovarian) [µM] | GI50 (HOP-92 NSCLC) [µM] | GI50 (SK-MEL-28 melanoma) [µM] | GI50 (U251 CNS) [µM] | GI50 (NCI-H460 lung) [µM] | GI50 (RPMI-8226 leukemia) [µM] | GI50 (KM12 colon) [µM] | GI50 (OVCAR-5 ovarian) [µM] | GI50 (SK-MEL-2 melanoma) [µM]
1 | Cc1ccc(Cl)cc1N=NC(=O)NNc1cc(Cl)ccc1C | 37 | 35.8 | 44.3 | 38.9 | 59.6 | 39 | > 100 | > 100 | 38.3 | 32.7 | 32.8 | – | – | – | – | – | – | – | – | –
2 | CCOC(=O)NC(Nc1cc(Cl)ccc1OC)(C(F)(F)F)C(F)(F)F | > 100 | > 100 | > 100 | > 100 | > 100 | > 100 | > 100 | > 100 | > 100 | > 100 | > 100 | – | – | – | – | – | – | – | – | –
3 | COc1cccc2c1C(=O)c1c(O)c3c(c(O)c1C2=O)C[C@@](O)(C(=O)COC(=O)c1ccccc1)C[C@@H]3OC1CC(N)C(O)C(C)O1 (stereo not given in full) | 1.42 | 0.392 | – | 1.95 | 0.273 | 0.182 | 0.61 | 1.23 | – | 1.64 | 1.99 | 0.369 | 0.0638 | 0.534 | 0.113 | 0.0167 | 0.193 | 0.215 | 0.4 | 0.563
4 | O=C(NN1C(=O)C(Cl)C1c1cccc([N+](=O)[O-])c1)c1ccccc1O (stereo not given) | > 100 | > 100 | > 100 | > 100 | > 100 | > 100 | > 100 | > 100 | > 100 | > 100 | > 100 | – | – | – | – | – | – | – | – | –
5 | CCOC(=O)/C=C/c1c(C)[nH]c(=O)[nH]c1=O | > 250 | > 25 | > 250 | > 250 | > 250 | > 250 | > 250 | > 250 | > 250 | > 250 | > 250 | – | – | – | – | – | – | – | – | –
6 | C/C(=N\NC(=S)N1CCC(N2CCCCC2)CC1)c1ccccn1 | 13.4 | 9.79 | 12 | 13.7 | 9.86 | 7.23 | > 29.4 | 9.53 | 12.3 | 10.2 | > 100 | – | – | – | – | – | – | – | – | –
7 | O=C1C(CO)=C[C@H](O)[C@H]2O[C@@H]12 | 406 | 525 | 588 | 294 | 381 | 420 | 332 | 219 | 473 | 346 | 345 | – | – | – | – | – | – | – | – | –
8 | c1ccc2c(c1)NCc1cc3ccccc3nc1O2 | > 100 | > 100 | > 100 | > 100 | > 100 | > 100 | > 100 | > 100 | > 100 | > 100 | > 100 | – | – | – | – | – | – | – | – | –
9 | c1ccc2c(c1)c1ccccc1n2Cn1c2ccccc2c2ccccc21 | > 100 | > 100 | > 100 | > 100 | > 100 | > 100 | > 100 | > 100 | > 100 | > 100 | > 100 | – | – | – | – | – | – | – | – | –
10 | COc1cc(-c2ccc(N=Nc3ccc4c(S(=O)(=O)O)cc(S(=O)(=O)O)c(N)c4c3O)c(OC)c2)ccc1N=Nc1ccc2c(S(=O)(=O)O)cc(S(=O)(=O)O)c(N)c2c1O | > 100 | > 100 | > 100 | > 100 | > 100 | > 100 | > 100 | > 100 | > 100 | > 100 | > 100 | – | – | – | – | – | – | – | – | –
11 | O=C1CCC[C@H]2O[C@@H](COC(=O)c3ccccc3)C[C@H]2O1 | > 100 | > 100 | > 100 | > 100 | > 100 | > 100 | > 100 | > 100 | > 100 | > 100 | > 100 | – | – | – | – | – | – | – | – | –
12 | c1cc2c3c(c1)c1cc4c(cc1c[n+]3CC2)OCO4 | 16.2 | 106 | 13.8 | 12.3 | 18.8 | 12.2 | 14 | 27.8 | 63.5 | 24.9 | 9.35 | – | – | – | – | – | – | – | – | –
13 | O=C(N/N=C\c1cccc2ccccc12)Nc1ccccc1 | > 100 | > 100 | > 100 | > 100 | > 100 | > 100 | > 100 | > 100 | > 100 | > 100 | > 100 | – | – | – | – | – | – | – | – | –
